This note sets out measurements from PubChem BioAssay AID330 (DTP/NCI, 2004).

Values joined by “and” are separate entries in the source; they are usually repeats but may differ in a detail not shown here. Equal values may be shown once. Toxic doses and inconclusive results are not listed.

The experiment has as its system P388 leukemia ip, CD2F1 mice, survival T/C. The experiment can be described thus: NCI In Vivo Anticancer Drug Screen. Data for tumor model P388 Leukemia (intraperitoneal) in CD2F1 (CDF1) mice. The settings on record: endpoint: median survival time, higher = longer survival. In short, it runs like this: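 Mice carrying the transplanted tumor received test compound or vehicle. Survival was recorded in each group, and the value is the treated-group measurement divided by that of the vehicle-treated control group.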

Setting [1] is: dose: 12.5 mg/kg/injection, schedule: Q01DX009 (ip), vehicle: Klucel (hydroxypropylcellulose) (HPC).
The mark [2] stands for this setting: dose: 25.0 mg/kg/injection, schedule: Q01DX009 (ip), vehicle: Klucel (hydroxypropylcellulose) (HPC).
The mark [3] stands for this setting: dose: 7.5 mg/kg/injection, schedule: Q01DX009 (ip), vehicle: saline with Tween-80.
Setting [4] is: dose: 100.0 mg/kg/injection, schedule: Q01DX009 (ip), vehicle: Klucel (hydroxypropylcellulose) (HPC).
Setting [5] is: dose: 100.0 mg/kg/injection, schedule: Q04DX003 (ip), vehicle: Klucel (hydroxypropylcellulose) (HPC).
Setting [6] is: dose: 200.0 mg/kg/injection, schedule: Q04DX003 (ip), vehicle: Klucel (hydroxypropylcellulose) (HPC).
Setting [7] is: dose: 400.0 mg/kg/injection, schedule: Q04DX003 (ip), vehicle: Klucel (hydroxypropylcellulose) (HPC).
[8] abbreviates: dose: 50.0 mg/kg/injection, schedule: Q01DX009 (ip), vehicle: Klucel (hydroxypropylcellulose) (HPC).
Where [9] appears, read: dose: 50.0 mg/kg/injection, schedule: Q01DX005 (ip), vehicle: Klucel (hydroxypropylcellulose) (HPC).
The mark [10] stands for this setting: dose: 100.0 mg/kg/injection, schedule: Q01DX005 (ip), vehicle: Klucel (hydroxypropylcellulose) (HPC).
The mark [11] stands for this setting: dose: 200.0 mg/kg/injection, schedule: Q01DX005 (ip), vehicle: Klucel (hydroxypropylcellulose) (HPC).

With `CCOC(=O)C(C)Oc1ccc(Cn2ccnn2)cc1` (configuration not stated), the T/C was 98 % of control (dose: 60.0 mg/kg/injection, schedule: Q01DX005 (ip), vehicle: saline with Tween-80); 98 % of control (dose: 120.0 mg/kg/injection, schedule: Q01DX005 (ip), vehicle: saline with Tween-80); 96 % of control (dose: 240.0 mg/kg/injection, schedule: Q01DX005 (ip), vehicle: saline with Tween-80).
In the case of `CCCCN=[N+]=[N-]`, the T/C was 91 % of control (dose: 12.5 mg/kg/injection, schedule: Q01DX009 (ip), vehicle: water); 98 % of control (dose: 25.0 mg/kg/injection, schedule: Q01DX009 (ip), vehicle: water); 98 % of control (dose: 50.0 mg/kg/injection, schedule: Q01DX009 (ip), vehicle: water); 100 % of control (dose: 100.0 mg/kg/injection, schedule: Q01DX009 (ip), vehicle: water); 96 % of control (dose: 200.0 mg/kg/injection, schedule: Q01DX009 (ip), vehicle: water).
Consider `CC(=O)Nc1ccc2nc(SC(C)C)sc2c1`, for which the T/C by setting is: (dose: 6.25 mg/kg/injection, schedule: Q01DX009 (ip), vehicle: Klucel (hydroxypropylcellulose) (HPC)) 104 % of control; under setting [1], 102 % of control; under setting [2], 96 % of control.
For `O=C(OC1C(O)OC2COC(=O)c3cc(O)c(O)c(O)c3-c3c(cc(O)c(O)c3O)C(=O)OC2C1O)c1cc(O)c(O)c(O)c1` (configuration not stated), the T/C is, setting by setting: (dose: 3.75 mg/kg/injection, schedule: Q01DX009 (ip), vehicle: saline with Tween-80) 97 % of control; under setting [3], 102 % of control; (dose: 15.0 mg/kg/injection, schedule: Q01DX009 (ip), vehicle: saline with Tween-80) 103 % of control.
With `O=C1c2ccccc2C(=O)C1(Br)C(Br)c1ccccc1` (configuration not stated), the T/C by setting is: under setting [4], 104 % of control; under setting [5], 104 % of control; under setting [6], 95 % of control; under setting [7], 90 % of control.
With `Cn1c2ccccc2c2cnn3c(-c4ccccc4)nnc3c21`, the T/C (dose: 100.0 mg/kg/injection, schedule: Q01DX001 (ip), vehicle: Klucel (hydroxypropylcellulose) (HPC)) was 105 % of control; the T/C (dose: 200.0 mg/kg/injection, schedule: Q01DX001 (ip), vehicle: Klucel (hydroxypropylcellulose) (HPC)) was 100 % of control; the T/C (dose: 400.0 mg/kg/injection, schedule: Q01DX001 (ip), vehicle: Klucel (hydroxypropylcellulose) (HPC)) was 100 % of control.
`Cc1cccc(/N=C/c2ccccc2O)n1`: the T/C runs as follows: under setting [8], 91 % of control; under setting [4], 86 % of control.
For the molecule `C=C1OC(C)=C(C(=O)OC(C)(C)C)C1C` (configuration not stated), the T/C runs as follows: (dose: 100.0 mg/kg/injection, schedule: Q01DX001 (ip), vehicle: saline with Tween-80) 106 % of control; (dose: 200.0 mg/kg/injection, schedule: Q01DX001 (ip), vehicle: saline with Tween-80) 102 % of control; (dose: 400.0 mg/kg/injection, schedule: Q01DX001 (ip), vehicle: saline with Tween-80) 105 % of control.
For the molecule `COc1cccc2c1C(=O)c1c(O)c3c(c(O)c1C2=O)C[C@@](O)(/C(C)=N/N1CCCCC1)C[C@@H]3OC1CC(N)C(O)C(C)O1` (some centres not stated), the T/C by setting is: (dose: 1.25 mg/kg/injection, schedule: Q01DX009 (ip), vehicle: saline) 156 % of control; (dose: 2.5 mg/kg/injection, schedule: Q01DX009 (ip), vehicle: saline) 160 % of control; (dose: 5.0 mg/kg/injection, schedule: Q01DX009 (ip), vehicle: saline) 101 % of control.
As for `CC(=O)O.CC(=O)O.[S-]CCN1CCOCC1.[Zn+2]`, the T/C is, setting by setting: under setting [1], 100 % of control; under setting [2], 102 % of control.
For the molecule `Cn1ccc2c3c4ccccc4ccc3c3c(ccn3C)c21`, the T/C reads like this: under setting [9], 197 % of control; under setting [10], 177 % of control; under setting [11], 239 % of control.
With `CCOC(=O)c1cc(Cl)cc2c(=O)c3c(O)c4[nH]c5c(C(=O)OCC)cc(Cl)cc5c(=O)c4c(O)c3[nH]c12`, the T/C is, setting by setting: under setting [8], 97 % of control; under setting [4], 106 % of control.
For `Cc1ccc2[nH]c(C)c(C(=O)c3ccncc3)c2c1`, the T/C is, setting by setting: under setting [5], 100 % of control; under setting [6], 100 % of control; under setting [7], 107 % of control.
As to `CN(C)CCC[Si]1(C)c2ccccc2CCc2ccccc21`, the T/C (dose: 25.0 mg/kg/injection, schedule: Q04DX003 (ip), vehicle: saline) is 104 % of control; the T/C (dose: 50.0 mg/kg/injection, schedule: Q04DX003 (ip), vehicle: saline) was 105 % of control; the T/C (dose: 100.0 mg/kg/injection, schedule: Q04DX003 (ip), vehicle: saline) was 109 % of control.
Consider `CC1(C)N=C(N)N=C(N)N1c1ccc(CCCCc2cccc(S(=O)(=O)F)c2)c(Cl)c1`, for which the T/C by setting is: (dose: 0.11 mg/kg/injection, schedule: Q01DX009 (ip), vehicle: saline with Tween-80) 107 % of control; (dose: 0.17 mg/kg/injection, schedule: Q01DX009 (ip), vehicle: saline with Tween-80) 111 % of control; (dose: 0.25 mg/kg/injection, schedule: Q01DX009 (ip), vehicle: saline with Tween-80) 115 % of control; (dose: 0.66 mg/kg/injection, schedule: Q01DX009 (ip), vehicle: saline with Tween-80) 107 % of control; (dose: 1.0 mg/kg/injection, schedule: Q01DX009 (ip), vehicle: saline with Tween-80) 109 % of control; (dose: 3.3 mg/kg/injection, schedule: Q01DX009 (ip), vehicle: saline with Tween-80) 160 % of control. For the same molecule, the T/C was 150 % of control (dose: 5.0 mg/kg/injection, schedule: Q01DX009 (ip), vehicle: saline with Tween-80); 150 % of control (dose: 6.25 mg/kg/injection, schedule: Q01DX009 (ip), vehicle: saline with Tween-80); 155 % of control under setting [3]; 154 % of control (dose: 8.0 mg/kg/injection, schedule: Q01DX009 (ip), vehicle: saline with Tween-80); 157 % of control (dose: 8.0 mg/kg/injection, schedule: Q01DX009 (ip), vehicle: saline); 163 % of control (dose: 12.0 mg/kg/injection, schedule: Q01DX009 (ip), vehicle: saline with Tween-80). The T/C by setting is: (dose: 12.0 mg/kg/injection, schedule: Q01DX009 (ip), vehicle: saline) 154 % of control; (dose: 12.5 mg/kg/injection, schedule: Q01DX009 (ip), vehicle: saline with Tween-80) 150 % of control; (dose: 18.0 mg/kg/injection, schedule: Q01DX009 (ip), vehicle: saline with Tween-80) 150 % of control; (dose: 18.0 mg/kg/injection, schedule: Q01DX009 (ip), vehicle: saline) 181 % of control; (dose: 25.0 mg/kg/injection, schedule: Q01DX009 (ip), vehicle: saline with Tween-80) 95 % of control; (dose: 27.0 mg/kg/injection, schedule: Q01DX009 (ip), vehicle: saline with Tween-80) 150 % of control.
Turning to `CCCCCCCCC[N+]1(CC)CCCC1`, the T/C (dose: 6.25 mg/kg/injection, schedule: Q01DX009 (ip), vehicle: saline) was 117 % of control; the T/C (dose: 12.5 mg/kg/injection, schedule: Q01DX009 (ip), vehicle: saline) was 117 % of control; the T/C (dose: 25.0 mg/kg/injection, schedule: Q01DX009 (ip), vehicle: saline) was 91 % of control.
Regarding `Oc1[nH]c2ccccc2c1N=NC(=S)NC1C2CC3CC(C2)CC1C3` (configuration not stated), the T/C by setting is: (dose: 50.0 mg/kg/injection, schedule: Q01DX005 (ip), vehicle: saline with Tween-80) 103 % of control; (dose: 100.0 mg/kg/injection, schedule: Q01DX005 (ip), vehicle: saline with Tween-80) 100 % of control; (dose: 200.0 mg/kg/injection, schedule: Q01DX005 (ip), vehicle: saline with Tween-80) 103 % of control.
With `C[CH2][Sn]([Cl])([CH2]C)[O][Sn]([CH2]C)([CH2]C)[O][Sn]([Cl])([CH2]C)[CH2]C`, the T/C by setting is: (dose: 6.25 mg/kg/injection, schedule: Q01DX005 (ip), vehicle: Klucel (hydroxypropylcellulose) (HPC)) 118 % of control and 121 % of control; (dose: 12.5 mg/kg/injection, schedule: Q01DX005 (ip), vehicle: Klucel (hydroxypropylcellulose) (HPC)) 113 % of control; (dose: 25.0 mg/kg/injection, schedule: Q01DX005 (ip), vehicle: Klucel (hydroxypropylcellulose) (HPC)) 111 % of control.
Consider `O=C1OC(c2ccccc2)=N/C1=C\c1ccc(Br)cc1`, for which the T/C under setting [9] was 93 % of control; the T/C under setting [10] is 87 % of control and 95 % of control; the T/C under setting [11] is 87 % of control.
